Reference: ChEMBL document CHEMBL1201862, “PubChem BioAssay data set” (2004)
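These data come from cells grown in 96-well plates and exposed to compound for 48 hours at five concentrations. The concentration for 50% growth inhibition is given as GI50.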 The source made the active and inactive calls. Rule as the data show it: active = GI50 up to about 1.1 µM and inactive = higher.

What was measured:
Assay in all cases: growth of human tumour cells (NCI), 48 h
BT-549 = tested on: BT-549
COLO 205 = tested on: COLO 205
DU-145 = tested on: DU-145
HCC 2998 = tested on: HCC 2998
HCT-116 = tested on: HCT-116
HOP-92 = tested on: HOP-92
KM12 = tested on: KM12
MDA-MB-231 = tested on: MDA-MB-231
NCI/ADR-RES = tested on: NCI/ADR-RES
OVCAR-3 = tested on: OVCAR-3
RPMI-8226 = tested on: RPMI-8226
SF-268 = tested on: SF-268
SF-295 = tested on: SF-295
SN12C = tested on: SN12C
UO-31 = tested on: UO-31
IGROV-1 = tested on: IGROV-1
M14 = tested on: M14
MCF7 = tested on: MCF7
Malme-3M = tested on: Malme-3M
NCI-H522 = tested on: NCI-H522

Compound	GI50 (BT-549)	GI50 (COLO 205)	GI50 (DU-145)	GI50 (HCC 2998)	GI50 (HCT-116)	GI50 (HOP-92)	GI50 (KM12)	GI50 (MDA-MB-231)	GI50 (NCI/ADR-RES)	GI50 (OVCAR-3)	GI50 (RPMI-8226)	GI50 (SF-268)	GI50 (SF-295)	GI50 (SN12C)	GI50 (UO-31)	GI50 (IGROV-1)	GI50 (M14)	GI50 (MCF7)	GI50 (Malme-3M)	GI50 (NCI-H522)
OC1(c2ccc(-c3ccccc3)cc2)c2ccccc2C2=NCCN21 (stereo not given)	> 100 µM (inactive)	21.4 µM (inactive)	> 100 µM (inactive)	19.1 µM (inactive)	30.3 µM (inactive)	50.4 µM (inactive)	22.9 µM (inactive)	56.1 µM (inactive)	29.2 µM (inactive)	19 µM (inactive)	29 µM (inactive)	29.6 µM (inactive)	52.2 µM (inactive)	> 100 µM (inactive)	30.6 µM (inactive)	–	–	–	–	–
Cc1[nH]c2ccccc2c1-c1cc(-c2cc(-c3c(C)[nH]c4ccccc34)nc(N)n2)nc(N)n1	> 100 µM (inactive)	> 100 µM (inactive)	–	–	> 100 µM (inactive)	> 100 µM (inactive)	> 100 µM (inactive)	> 100 µM (inactive)	> 100 µM (inactive)	> 100 µM (inactive)	> 100 µM (inactive)	> 100 µM (inactive)	> 100 µM (inactive)	> 100 µM (inactive)	14.9 µM (inactive)	> 100 µM (inactive)	> 100 µM (inactive)	> 100 µM (inactive)	> 100 µM (inactive)	51.8 µM (inactive)
O=C1C(Br)=C(c2ccccc2)C(c2ccccc2)=C1c1ccccc1	3.6 µM (inactive)	1.87 µM (inactive)	13.2 µM (inactive)	6.05 µM (inactive)	1.9 µM (inactive)	1.69 µM (inactive)	5.94 µM (inactive)	1.79 µM (inactive)	–	2.61 µM (inactive)	1.45 µM (inactive)	3.44 µM (inactive)	10.9 µM (inactive)	1.95 µM (inactive)	5.5 µM (inactive)	4.28 µM (inactive)	2.15 µM (inactive)	2.4 µM (inactive)	1.75 µM (inactive)	0.753 µM (active)
O=C1C(NS(=O)(=O)c2ccccc2)=C(N(Cc2ccccc2)Cc2ccccc2)C(=O)c2ccccc21	16.9 µM (inactive)	39.6 µM (inactive)	48.1 µM (inactive)	–	36.7 µM (inactive)	36.3 µM (inactive)	> 100 µM (inactive)	> 100 µM (inactive)	38.5 µM (inactive)	30.4 µM (inactive)	18.8 µM (inactive)	88.1 µM (inactive)	31.9 µM (inactive)	41.5 µM (inactive)	19.2 µM (inactive)	41.8 µM (inactive)	43.7 µM (inactive)	49.7 µM (inactive)	0.273 µM (active)	–
Cc1nnc2n(c1=O)CCCN2C	> 100 µM (inactive)	> 100 µM (inactive)	> 100 µM (inactive)	> 100 µM (inactive)	> 100 µM (inactive)	> 100 µM (inactive)	> 100 µM (inactive)	> 100 µM (inactive)	–	> 100 µM (inactive)	> 100 µM (inactive)	> 100 µM (inactive)	> 100 µM (inactive)	> 100 µM (inactive)	> 100 µM (inactive)	> 100 µM (inactive)	> 100 µM (inactive)	> 100 µM (inactive)	> 100 µM (inactive)	–
COc1c2cc(C(C)(C)C)cc1CSCc1cc(C(C)(C)C)cc(c1OC)CCCCC2	21.6 µM (inactive)	> 50 µM (inactive)	31.8 µM (inactive)	29.6 µM (inactive)	27.4 µM (inactive)	–	> 50 µM (inactive)	46.8 µM (inactive)	> 50 µM (inactive)	15.1 µM (inactive)	–	46.2 µM (inactive)	17 µM (inactive)	> 50 µM (inactive)	20.7 µM (inactive)	21.4 µM (inactive)	46.7 µM (inactive)	> 50 µM (inactive)	29 µM (inactive)	–
Cc1c(C)c(C)c(-n2[nH]c(=O)n(C)c2=O)c(C)c1C	> 100 µM (inactive)	> 100 µM (inactive)	> 100 µM (inactive)	–	> 100 µM (inactive)	> 100 µM (inactive)	> 100 µM (inactive)	> 100 µM (inactive)	> 100 µM (inactive)	> 100 µM (inactive)	> 100 µM (inactive)	> 100 µM (inactive)	> 100 µM (inactive)	> 100 µM (inactive)	52.5 µM (inactive)	> 100 µM (inactive)	> 100 µM (inactive)	> 100 µM (inactive)	–	–
O=S(=O)(c1cc(Cl)ccc1Cl)N1CCN(c2ccc(Cl)c(Cl)c2)CC1	33.3 µM (inactive)	–	> 100 µM (inactive)	62.1 µM (inactive)	34.6 µM (inactive)	18 µM (inactive)	28.2 µM (inactive)	> 100 µM (inactive)	–	14.6 µM (inactive)	> 100 µM (inactive)	27.3 µM (inactive)	24.9 µM (inactive)	78.5 µM (inactive)	35.8 µM (inactive)	36.8 µM (inactive)	39.6 µM (inactive)	> 100 µM (inactive)	37.7 µM (inactive)	18.5 µM (inactive)
